In brackets after ≈: the same amount, converted by molar mass. Where two headings read alike, the source gives them in different places.
Columns and labels:
[1] = Human plasma protein binding, equilibrium dialysis; assay type: in vitro ADME; settings: pooled human plasma, 37° C., about 6 hours, 1 μM drug, read-out: Protein binding (human plasma) % Free
Experimental: The human plasma protein binding was determined using the Equilibrium Dialysis method. Dialysis was conducted with pooled human plasma at 37° C. for approximately 6 hours at a drug concentration of 1 μM. At the end of the dialysis, buffer samples from the buffer-side of the dialysis cell were collected and analyzed by LC/MS/MS for free drug concentration. For NNRTIs, a lower protein binding is more desirable.

[2] = Metabolic stability in monkey liver microsomes; assay type: in vitro ADME; settings: 10 μM, 1 mg/mL microsomes, 37° C., 2 hrs
From the text: (§1) The metabolic stability assay is to evaluate the stability of test compound in biological matrices. Data are useful in terms of understanding and predicting the elimination mechanisms of the test compound. CYP450-dependent metabolism of drugs can also vary widely from one species to another. Evaluating in vitro metabolism of a drug by liver microsomes from multiple species allows the comparison of metabolism in animal species to that of humans. This can help identify the most relevant animal model for PK and toxicology studies. The metabolic stability of a test compound was evaluated in vitro in liver microsomes of the rat, dog, monkey, and human. 10 μM of the test compound was pre-incubated for 5 min at 37° C. with 1 mg/mL liver microsomes in 0.1M Tris buffer, pH 7.4 containing 5 mM MgCl2 and 0.1 mM EDTA. Following pre-incubation, NADPH (final concentration of 3 mM) was added to start the reaction and samples incubated for 0 and 1 or 2 hours. After terminating the reaction, the supernatant was analyzed by HPLC-UV or LC/MS/MS for the disappearance of the parent and formation of metabolite(s). The %parent remaining was the peak area ratio of the 1 or 2 hr sample to the time 0 sample. In general, less metabolism (higher % parent values) is more desirable.

[3] = Metabolic stability in rat liver microsomes; assay type: in vitro ADME; settings: 10 μM, 1 mg/mL microsomes, 37° C., 2 hrs
From the text: as §1

CYP3A4 = target: T1, CYP3A4 (Homo sapiens, UniProt P08684); assay: CYP450 inhibition, CYP3A4/BFC screening kit; assay type: in vitro ADME
T1 construct: purchased BD Biosciences
From the text: (§2) In vitro CYP450 inhibition screening allows for the prediction of potential drug-drug interactions. […] Potency and rank order of the inhibition can be assessed by determination of the IC50 values for a particular isozyme.
(§3) CYP3A4 inhibition was screened using the CYP3A4/BFC high throughput inhibitor screening kit (BD Biosciences), CYP2D6 inhibition was screened using the CYP2D6/AMMC high throughput inhibitor screening kit (BD Biosciences), and CYP2C9 inhibition was screened using the P450-Glo™ Assay kit (Promega).

CYP2C9 = target: T2, CYP2C9 (Homo sapiens, UniProt P11712); assay: CYP450 inhibition, CYP2C9 P450-Glo assay kit; assay type: in vitro ADME
T2 construct: purchased Promega
From the text: as §2, §3

[4] = Metabolic stability in human liver microsomes; assay type: in vitro ADME; settings: 10 μM, 1 mg/mL microsomes, 37° C., 2 hrs
From the text: as §1

CYP2D6 = target: T3, CYP2D6 (Homo sapiens, UniProt P10635); assay: CYP450 inhibition, CYP2D6/AMMC screening kit; assay type: in vitro ADME
T3 construct: purchased BD Biosciences
From the text: as §2, §3

[5] = pH dependent aqueous solubility, shake-flask method; assay type: physicochemical; settings: aqueous solution, thermodynamic from solid, saturated concentration 1 mM
Experimental: The aqueous solubility of each compound was determined by the conventional shake-flask method at a saturated concentration of 1 mM. The flask (vial) was shaken for 3 hrs at ambient temperature, and then centrifuged. The supernatant was analyzed by HPLC with UV detection for solubility determination. In general, a higher aqueous solubility is more desirable for drug candidates.

[6] = Metabolic stability in dog liver microsomes; assay type: in vitro ADME; settings: 10 μM, 1 mg/mL microsomes, 37° C., 2 hrs
From the text: as §1

[7] = PK and oral bioavailability in the rat; assay type: in vivo, Sprague-Dawley rats; settings: for half-life: PEG400, read-out: T½ (converted)
Experimental: (§4) The pharmacokinetics of a test compound was evaluated in Sprague-Dawley rats and Beagle dogs. A typical PK study involved dosing of 2 to 3 animals via a single IV bolus injection at 1 mg/kg and another 3 animals via a single oral gavage at 5 mg/kg. Blood samples were collected at various time points over a 24-hr period. Plasma was separated and analyzed for test compound and its metabolite(s) by LC/MS/MS. PK parameters were calculated from the plasma concentration—time profile using a noncompartmental method. Oral bioavailability (F) was calculated based on dose-normalized AUC values from oral and IV administration. Higher oral bioavailability values are better.

[8] = PK and oral bioavailability in the dog; assay type: in vivo, Beagle dogs
Experimental: as §4

[9] = In vitro metabolism in liver microsomes, metabolic pathway; assay type: in vitro ADME, rat, dog, monkey, and human; settings: LC/MS/MS metabolite profiling
Experimental: Phase I biotransformation of a test compound is evaluated in this assay. Samples from the metabolic stability experiment were analyzed by LC/MS/MS for metabolite profiling and identification. Structures of metabolites were elucidated based on multiple MS/MS experiments such as full scan, neutral loss scan, and product ion scan. Metabolic pathways were then postulated based on the structures of major metabolites. For compounds from the phosphinate series, N-oxidation of the terminal pyridine ring is the predominant pathway, followed by the oxidation of the dimethyl-phenyl group, where the methyl group(s) is hydroxylated, further oxidized to an aldehyde, and finally to a carboxylic acid. The elucidation of metabolic pathways is important in terms of understanding the elimination mechanism of a test compound and assisting the design of new molecules with improved DM-PK profiles.

[10] = pH 1, simulated gastric fluid, pH1, ambient temperature, read-out: Aqueous solubility pH1
[11] = pH 3, aqueous buffer, pH3, ambient temperature, read-out: Aqueous solubility pH3
[12] = pH 7, aqueous buffer, pH7, ambient temperature, read-out: Aqueous solubility pH7
[13] = pH 9, aqueous buffer, pH9, ambient temperature, read-out: Aqueous solubility pH9
[14] = Sprague-Dawley, plasma, IV, 1.0 mg/kg, PEG400
[15] = Sprague-Dawley, plasma, PO, 5.0 mg/kg, PEG400
[16] = Beagle, plasma, IV, 1.0 mg/kg, PEG400
[17] = Beagle, plasma, PO, 5.0 mg/kg, 0.5% MC

T2 sequence (P11712 whole entry): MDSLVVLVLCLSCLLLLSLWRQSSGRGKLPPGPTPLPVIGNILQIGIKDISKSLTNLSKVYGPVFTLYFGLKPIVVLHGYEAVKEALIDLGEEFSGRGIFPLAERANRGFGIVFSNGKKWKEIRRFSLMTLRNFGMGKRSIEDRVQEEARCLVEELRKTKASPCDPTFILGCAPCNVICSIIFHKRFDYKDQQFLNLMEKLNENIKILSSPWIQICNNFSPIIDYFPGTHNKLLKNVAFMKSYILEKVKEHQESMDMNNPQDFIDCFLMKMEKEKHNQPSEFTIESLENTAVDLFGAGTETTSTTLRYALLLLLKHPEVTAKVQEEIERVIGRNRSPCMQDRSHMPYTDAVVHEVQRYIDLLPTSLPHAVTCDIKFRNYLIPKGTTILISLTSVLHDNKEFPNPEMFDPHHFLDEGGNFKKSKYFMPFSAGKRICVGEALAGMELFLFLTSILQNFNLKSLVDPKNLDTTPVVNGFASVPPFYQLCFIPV
T1 sequence (P08684 whole entry): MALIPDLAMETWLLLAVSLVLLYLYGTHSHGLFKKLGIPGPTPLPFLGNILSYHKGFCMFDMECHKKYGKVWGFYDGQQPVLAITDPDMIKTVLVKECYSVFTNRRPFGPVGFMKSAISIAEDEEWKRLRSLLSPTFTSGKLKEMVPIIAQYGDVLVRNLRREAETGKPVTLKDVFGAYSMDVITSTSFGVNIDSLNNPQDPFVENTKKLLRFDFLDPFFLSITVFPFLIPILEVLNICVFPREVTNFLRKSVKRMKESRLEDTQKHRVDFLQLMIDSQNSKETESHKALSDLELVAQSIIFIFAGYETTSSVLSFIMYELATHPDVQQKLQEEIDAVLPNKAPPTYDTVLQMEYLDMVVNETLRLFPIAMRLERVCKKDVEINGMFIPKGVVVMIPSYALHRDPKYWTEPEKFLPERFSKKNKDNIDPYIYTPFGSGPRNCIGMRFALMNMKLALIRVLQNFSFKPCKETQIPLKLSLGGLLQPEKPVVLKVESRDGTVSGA
T3 sequence (P10635 whole entry): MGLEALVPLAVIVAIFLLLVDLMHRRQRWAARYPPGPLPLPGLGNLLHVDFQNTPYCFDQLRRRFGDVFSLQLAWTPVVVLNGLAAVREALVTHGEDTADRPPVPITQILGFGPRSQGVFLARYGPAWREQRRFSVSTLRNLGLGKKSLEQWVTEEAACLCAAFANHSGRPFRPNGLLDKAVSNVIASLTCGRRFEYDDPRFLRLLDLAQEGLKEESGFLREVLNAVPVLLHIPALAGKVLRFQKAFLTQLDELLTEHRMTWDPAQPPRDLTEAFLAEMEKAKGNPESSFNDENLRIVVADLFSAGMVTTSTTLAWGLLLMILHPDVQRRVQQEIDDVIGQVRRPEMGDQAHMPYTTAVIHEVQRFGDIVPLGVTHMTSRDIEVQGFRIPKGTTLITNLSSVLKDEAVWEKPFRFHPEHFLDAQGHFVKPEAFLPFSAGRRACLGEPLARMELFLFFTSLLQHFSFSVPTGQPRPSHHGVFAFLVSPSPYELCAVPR

COP(=O)(c1cc(C)cc(C)c1)c1c(C(=O)NCc2cc[n+]([O-])cc2)[nH]c2ccc(Cl)c(F)c12 (centres unmarked) [Compound B]
fraction unbound at 6 h, 1 μM [1]: 0.038
Metabolic stability in liver microsomes % Parent after 2 hrs, Monkey [2]: 63%
Metabolic stability in liver microsomes % Parent after 2 hrs, Rat [3]: 1%
IC50 (CYP3A4): 1.04 µM
IC50 (CYP2C9): > 10 µM
Metabolic stability in liver microsomes % Parent after 2 hrs, Human [4]: 94%
IC50 (CYP2D6): > 10 µM
solubility at 3 h [5, 10]: 190 µM (≈ 95.4 µg/mL)
solubility at 3 h [5, 11]: 170 µM (≈ 85.3 µg/mL)
solubility at 3 h [5, 12]: 200 µM (≈ 100 µg/mL)
solubility at 3 h [5, 13]: 190 µM (≈ 95.4 µg/mL)
Metabolic stability in liver microsomes % Parent after 2 hrs, Dog [6]: 85%

COP(=O)(c1cc(C)cc(C)c1)c1c(C(=O)NCc2cc[n+]([O-])cc2)[nH]c2ccc(Cl)cc12 (centres unmarked) [Compound D]
fraction unbound at 6 h, 1 μM [1]: 0.016
Metabolic stability in liver microsomes % Parent after 2 hrs, Monkey [2]: 24%
Metabolic stability in liver microsomes % Parent after 2 hrs, Rat [3]: 1%
IC50 (CYP3A4): 1.07 µM
AUCinf/Dose ([7]; IV, 1.0 mg/kg, PEG400): 188.3
CI ([7]; IV, 1.0 mg/kg, PEG400): 90.297 mL/min/kg
AUCinf/Dose ([7]; PO, 5.0 mg/kg, PEG400): 30.2
F ([7]; PO, 5.0 mg/kg, PEG400, oral bioavailability): 16.0%
AUC(0-inf) [7, 14]: 188 ng·h/mL
AUC(0-t) [7, 14]: 174 ng·h/mL
Cmax [7, 14]: 166 ng/mL
half-life ([7]; Sprague-Dawley, plasma, IV, 1.0 mg/kg): 0.9 h
Vd ([7]; Sprague-Dawley, plasma, IV, 1.0 mg/kg, PEG400, read-out: Vss): 6.37 L/kg
AUC(0-inf) [7, 15]: 151 ng·h/mL
AUC(0-t) [7, 15]: 132 ng·h/mL
Cmax [7, 15]: 45 ng/mL
Tmax [7, 15]: 0.5 h
half-life ([7]; Sprague-Dawley, plasma, PO, 5.0 mg/kg): 2.2 h
AUC(0-inf) [8, 16]: 1220 ng·h/mL
AUC(0-t) [8, 16]: 1010 ng·h/mL
Cmax [8, 16]: 430 ng/mL
half-life ([8]; Beagle, plasma, IV, 1.0 mg/kg, PEG400, read-out: T½ (converted)): 3.2 h
Vd ([8]; Beagle, plasma, IV, 1.0 mg/kg, PEG400, read-out: Vss): 3.72 L/kg
AUC(0-inf) [8, 17]: 747 ng·h/mL
AUC(0-t) [8, 17]: 696 ng·h/mL
Cmax [8, 17]: 116 ng/mL
Tmax [8, 17]: 2.7 h
half-life ([8]; Beagle, plasma, PO, 5.0 mg/kg, 0.5% MC, read-out: T½ (converted)): 2.6 h
AUCinf/Dose ([8]; IV, 1.0 mg/kg, PEG400): 1220.5
CI ([8]; IV, 1.0 mg/kg, PEG400): 13.7 mL/min/kg
AUCinf/Dose ([8]; PO, 5.0 mg/kg, 0.5% MC): 149.3
F ([8]; PO, 5.0 mg/kg, 0.5% MC, oral bioavailability): 12.4%
IC50 (CYP2C9): > 10 µM
Metabolic pathway (in vitro) [9]: Hydroxylation to CH3OH— to CHO— to COOH—
Metabolic stability in liver microsomes % Parent after 2 hrs, Human [4]: 76%
IC50 (CYP2D6): > 10 µM
solubility at 3 h [5, 10]: 52 µM (≈ 25.2 µg/mL)
solubility at 3 h [5, 11]: 74.2 µM (≈ 35.9 µg/mL)
solubility at 3 h [5, 12]: 50.6 µM (≈ 24.5 µg/mL)
solubility at 3 h [5, 13]: 66.8 µM (≈ 32.3 µg/mL)
Metabolic stability in liver microsomes % Parent after 2 hrs, Dog [6]: 82%

COP(=O)(c1cc(C)cc(F)c1)c1c(C(=O)NCc2cc[n+]([O-])cc2)[nH]c2ccc(Cl)cc12 (centres unmarked) [Compound G]
fraction unbound at 6 h, 1 μM [1]: 0.016
Metabolic stability in liver microsomes % Parent after 2 hrs, Monkey [2]: 41%
Metabolic stability in liver microsomes % Parent after 2 hrs, Rat [3]: 24%
IC50 (CYP3A4): 1.14 µM
IC50 (CYP2C9): 8.85 µM
Metabolic pathway (in vitro) [9]: Hydroxylation to CH3OH— to CHO— to COOH—
Metabolic stability in liver microsomes % Parent after 2 hrs, Human [4]: 85%
IC50 (CYP2D6): > 10 µM
Metabolic stability in liver microsomes % Parent after 2 hrs, Dog [6]: 77%
